In PMC9367601 (Cancers, 2022):

Target: T1, Epidermal Growth Factor Receptor (EGFR), extracellular domain (EGFR-ECD) (Homo sapiens, UniProt P00533)
T1 construct: full-length EGFR in DiscoverX PathHunter enzyme-complementation cells, EGF-stimulated
Test: cell-based
Set-up: DiscoverX PathHunter EGFR dimerization/activation assay, chemiluminescence
Protocol: The inhibition of the EGFR dimerization assay was conducted using the PathHunter kit following the producer instructions and with cetuximab as a positive control. For IC50 determination, the selected compounds were tested at different concentration (range 0.1–100 µM) and the IC50 values were calculated by the four parameters logistic (4-PL) model. Evaluation was based on means from at least four independent experiments. The discovery of orally available small molecules able to impair the EGFR activation targeting the extracellular domain could be of great interest for cancer treatment. To pursue this goal, a suitable high/medium throughput screening method is required. In this respect, a commercially available kit (PathHunter® from DiscoverX©; San Francisco, CA, USA) for the screening of compounds able to prevent EGFR activation (either dimerization or autophosphorylation) has been developed in recent years. This assay measures the chemiluminescent signal produced as a consequence of ligand-induced dimerization/activation of EGFR [16]. Our interest in kinase inhibitors and the readily availability of such kit prompted us to start a campaign for the discovery of small molecules targeting the extracellular domain of EGFR.

T1 sequence (P00533 25-1210): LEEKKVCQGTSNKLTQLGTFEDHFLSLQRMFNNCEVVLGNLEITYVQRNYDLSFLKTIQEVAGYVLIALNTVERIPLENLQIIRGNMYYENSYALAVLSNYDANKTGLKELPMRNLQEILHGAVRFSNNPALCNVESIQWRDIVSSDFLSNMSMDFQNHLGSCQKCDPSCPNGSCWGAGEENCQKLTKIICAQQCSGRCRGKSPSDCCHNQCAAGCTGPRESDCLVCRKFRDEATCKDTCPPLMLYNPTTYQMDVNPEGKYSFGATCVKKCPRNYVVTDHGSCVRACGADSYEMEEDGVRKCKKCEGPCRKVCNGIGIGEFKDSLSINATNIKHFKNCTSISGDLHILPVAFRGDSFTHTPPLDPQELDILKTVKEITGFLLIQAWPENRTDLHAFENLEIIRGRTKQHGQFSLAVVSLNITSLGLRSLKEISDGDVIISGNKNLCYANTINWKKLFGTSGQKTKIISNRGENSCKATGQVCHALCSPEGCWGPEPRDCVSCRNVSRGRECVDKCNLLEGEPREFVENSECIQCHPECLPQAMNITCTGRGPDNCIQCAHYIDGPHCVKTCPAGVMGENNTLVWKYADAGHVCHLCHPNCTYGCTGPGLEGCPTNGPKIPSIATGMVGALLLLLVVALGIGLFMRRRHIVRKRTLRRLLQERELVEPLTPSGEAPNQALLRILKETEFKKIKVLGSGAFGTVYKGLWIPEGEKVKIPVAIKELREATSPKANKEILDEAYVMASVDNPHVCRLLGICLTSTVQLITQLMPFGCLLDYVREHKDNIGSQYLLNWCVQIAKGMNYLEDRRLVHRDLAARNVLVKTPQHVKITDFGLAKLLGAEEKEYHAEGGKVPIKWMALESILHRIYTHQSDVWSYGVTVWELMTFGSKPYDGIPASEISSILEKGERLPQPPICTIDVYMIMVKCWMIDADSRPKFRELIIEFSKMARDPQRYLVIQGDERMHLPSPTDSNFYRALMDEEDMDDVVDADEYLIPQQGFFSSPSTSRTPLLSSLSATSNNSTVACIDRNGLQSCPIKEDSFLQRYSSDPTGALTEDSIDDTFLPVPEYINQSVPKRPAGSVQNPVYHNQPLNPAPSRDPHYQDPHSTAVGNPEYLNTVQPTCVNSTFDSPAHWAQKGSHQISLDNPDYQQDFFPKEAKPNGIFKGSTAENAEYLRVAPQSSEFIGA

inhibition at 10 µM [%]	inhibition at 50 µM [%]	SMILES
0	0	Nc1ccc2cc3cc(N)ccc3cc2c1 [DSF001]
0	0	CC(=O)c1cccc2cc3c(C(C)=O)cccc3cc12 [DSF002]
35 ± 5	50 ± 1	ClCc1c2ccccc2c(CCl)c2ccccc12 [DSF003]
0	1 ± 1	N#CCc1c2ccccc2c(CC#N)c2ccccc12 [DSF004]
0	1 ± 4	O=C(O)c1cccc2cc3c(C(=O)O)cccc3cc12 [DSF005]
19 ± 1	27 ± 4	c1ccc2c(CN3CCOCC3)c3ccccc3c(CN3CCOCC3)c2c1 [DSF006]
16 ± 4	16 ± 4	c1ccc2c(CN3CCCCC3)c3ccccc3c(CN3CCCCC3)c2c1 [DSF007]
0	14 ± 2	CC(=O)Nc1ccc(O)c2c1C(=O)c1ccccc1C2=O [DSF008]
8 ± 1	48 ± 1	CS(=O)(=O)Nc1ccc(NC(=O)c2ccc3c(c2)C(=O)c2c(NCCOCCN)ccc(NCCOCCN)c2C3=O)cc1 [DSF009]
28 ± 3	34 ± 2	CS(=O)(=O)Nc1ccc(NC(=O)c2ccc3c(c2)C(=O)c2c(NCCN4CCNCC4)ccc(NCCN4CCNCC4)c2C3=O)cc1 [DSF010]
9 ± 5	39 ± 1	O=C(O)COCC(=O)OCc1cc(O)c2c(c1)C(=O)c1cccc(O)c1C2=O [DSF011]
0	20 ± 5	CC(NC(=O)C(NC(=O)OCc1ccccc1)C(C)C)C(=O)OCCCCCNc1ccc(NCCCCCOC(=O)C(C)NC(=O)C(NC(=O)OCc2ccccc2)C(C)C)c2c1C(=O)c1ccccc1C2=O (stereo not shown) [DSF012]
0	0	CC(NC(=O)C(NC(=O)OCc1ccccc1)C(C)C)C(=O)OCCCCCNc1ccc(NCCCCCO)c2c1C(=O)c1ccccc1C2=O (stereo not shown) [DSF013]
0	0	C=CCOc1cccc2c1C(=O)c1cccc(OCC=C)c1C2=O [DSF014]
39 ± 4	48 ± 1	CN(C)CCNc1ccc(F)c2c1C(=O)c1ccccc1C2=O [DSF015]
33 ± 5	25 ± 3	O=C1c2ccccc2C(=O)c2c(NCCNCCO)ccc(F)c21 [DSF016]
9 ± 2	14 ± 1	O=C(CN1CCCCC1)Nc1ccc(NC(=O)CN2CCCCC2)c2c1C(=O)c1ccccc1C2=O [DSF017]
16 ± 3	38 ± 5	O=C(CN1CCOCC1)Nc1ccc(NC(=O)CN2CCOCC2)c2c1C(=O)c1ccccc1C2=O [DSF018]
35 ± 5	33 ± 1	O=C(CN1CCCCC1)Nc1ccc(NC(=O)CN2CCCCC2)c2c1C(=O)c1c(O)ccc(O)c1C2=O [DSF019]
33 ± 5	29 ± 1	O=C(CN1CCOCC1)Nc1ccc(NC(=O)CN2CCOCC2)c2c1C(=O)c1c(O)ccc(O)c1C2=O [DSF020]
16 ± 4	30 ± 5	O=C(CCN1CCOCC1)Nc1ccc(NC(=O)CCN2CCOCC2)c2c1C(=O)c1ccccc1C2=O [DSF021]
0	4 ± 4	Nc1cccc(-c2cc(-c3ccccc3)ncn2)c1 [DSF022]
22 ± 1	8 ± 2	Nc1cccc(-c2cc(-c3ccc(C(=O)O)cc3)ncn2)c1 [DSF023]
16 ± 1	5 ± 3	O=C(O)c1ccc(-c2cc(-c3cccc(C(F)(F)F)c3)nc(O)n2)cc1 [DSF024]
6 ± 5	34 ± 1	O=C(O)c1ccc(-c2cc(-c3cccc(C(F)(F)F)c3)ncn2)cc1 [DSF025]

inhibition at 10 µM [%]	inhibition at 50 µM [%]	SMILES
0	0	FC(F)(F)c1cccc(-c2cc(-c3ccccc3)ncn2)c1 [DSF026]
0	0	c1ccc(-c2cccc(-c3cc(-c4ccccc4)ncn3)c2)cc1 [DSF027]
0	0	Brc1cccc(-c2cc(-c3ccccc3)ncn2)c1 [DSF028]
1 ± 4	0	O=C(O)c1ccc(-c2ccc(-c3ccccc3)cc2O)cc1 [DSF029]
0	0	O=C(NCc1ccccc1)c1ccc(-c2ccc(-c3ccccc3)cc2O)cc1 [DSF030]
0	19 ± 1	COc1cccc(Nc2ccc3cc(-c4cccs4)c(=O)oc3n2)c1 [DSF031]
0	3 ± 5	CSc1cccc(Nc2ccc3cc(-c4cccs4)c(=O)oc3n2)c1 [DSF032]
0	12 ± 3	COc1cccc(Nc2nc(N(C)C)c3cc(-c4c(Cl)cccc4Cl)c(=O)oc3n2)c1 [DSF033]
14 ± 2	0	COc1cccc(Nc2nc(O)c3cc(-c4c(Cl)cccc4Cl)c(=O)oc3n2)c1 [DSF034]
0	0	COc1cccc(Nc2nc(O)c3cc(-c4cc(OC)cc(OC)c4)c(=O)oc3n2)c1 [DSF035]
0	0	COc1cccc(Nc2nc(O)c3cc(-c4ccccc4)c(=O)oc3n2)c1 [DSF036]
12 ± 4	40 ± 5	O=c1oc2ncnc(Nc3cccc(-c4ccccc4)c3)c2cc1-c1c(Cl)cccc1Cl [DSF037]
0	24 ± 5	Cc1cccc(Nc2ncnc3oc(=O)c(-c4c(Cl)cccc4Cl)cc23)c1 [DSF038]
0	10 ± 2	CN1CCN(c2ncnc3oc(=O)c(-c4c(Cl)cccc4Cl)cc23)CC1 [DSF039]
0	0	CCOC(=O)c1cc2cnc(O)nc2oc1=O [DSF040]
0	0	O=c1oc2nc(Nc3cccc(-c4ccccc4)c3)nc(O)c2cc1-c1cccc(Br)c1 [DSF041]
0	0	COC(=O)Cc1c(C)c2ccc(O)cc2oc1=O [DSF042]
0	0	COc1ccc2c(C)c(CC(=O)Nc3ccc(C(=O)O)cc3)c(=O)oc2c1 [DSF043]
0	0	COc1ccc2c(C)c(CCC(=O)Nc3ccc(C(=O)O)cc3)c(=O)oc2c1C [DSF044]
0	0	COc1ccc2c(C)c(CCC(=O)Nc3ccc(C(=O)O)cc3)c(=O)oc2c1 [DSF045]
0	0	COCCOc1ccc2c(C)c(CC(=O)Nc3ccc(C(=O)O)cc3)c(=O)oc2c1 [DSF046]
0	0	COc1ccc2c(C)c(CC(=O)Nc3cccc(C(=O)O)c3)c(=O)oc2c1C [DSF047]
9 ± 3	3 ± 4	COCCOc1ccc2c(C)c(CCC(=O)Nc3ccc(C(=O)O)cc3)c(=O)oc2c1 [DSF048]
35 ± 2	36 ± 3	Cc1c(CCC(=O)Nc2cccc(C(=O)O)c2)c(=O)oc2nc3oc4c(c3cc12)CCCC4 [DSF049]
24 ± 4	32 ± 2	Cc1c(CC(=O)Nc2cccc(O)c2)c(=O)oc2c(C)c3oc4c(c3cc12)CCCC4 [DSF050]
